Assay results: patent publication US7687465B2, “Therapeutic cancer vaccine” (Kraeftens Bekaempelse, priority 2003, dated 2010)
Ends that are not written are not given here.

Legend:
[1] = biological target: T1, HLA-A2 (Homo sapiens, UniProt P04439, D140Y/D185E/D98H/E176V/E277Q/G131W/G231S/I119V/I121R/I166T/I218V/L300P/L318F/N151K/N90K/P208A/P217A/Q86G/Q94H/R138H/R169H/T345S); assay: Assembly assay for peptide binding to class I MHC molecules; conditions: concentration of the peptide required for half maximal binding to HLA-A2; for EC50: read-out: C50
T1 construct: stabilization of the class 1 molecule after loading of peptide to the peptide transporter deficient cell line T2; endogenous in cells; host or cells: T2 (TAP-deficient human cell line), metabolically labelled with [35S]-methionine and lysed
Description: Assembly assays for binding of the synthetic peptides to class I MHC molecules metabolically labeled with [^35S]-methionine can be carried out as described below. It will be appreciated by the person skilled in the art that the protocol may be adopted for any peptide and any class I MHC molecule.
Briefly, TAP deficient cells were metabolically labeled with [^35S]-methionine (Amersham, Freiburg, Germany). The cells were lyzed in 0.5 ml lysis buffer (150 mM NaCl, 50 mM TrisHCl, 0.5% NP-40 (Fluka, Buchs, Switzerland), 5 mM EDTA, pH 7.5) with 0.5% Mega-9 (Sigma, St. Louis, USA) in the presence of protease inhibitors (2 mM PMSF, 5 mM iodoacetamide, 2 μg/ml pepstatin, 2 μg/ml leupeptin) with or without synthetic peptide (for a list of positive control peptides, see Table 2).
After 20 min of incubation, the cell nuclei were removed by centrifugation (5 min, 10,000 g) and 50 μl (10% v/v) freshly washed Staphylococcus aureus organisms (Pansorbin, Calbiochem, Nottingham, UK). The next day Pansorbin was removed by centrifugation (12 min, 16,000 g) and the appropriate monoclonal antibody was added at a final concentration of 10 μg/ml, incubated for 90 min, followed by addition of protein A-Sepharose (75 μl, 10% v/v) and incubation for 1 h. The beads were washed 4 times and stored at −20° C. until analysis by electrophoresis.
In the case of an assembly assay with the HLA class I-specific conformation-dependent monoclonal antibody W6/32, samples were eluted in reducing buffer (9.5 M urea, 2% NP-40, 5% 2-mercaptoethanol, 2% Ampholines, pH range 3.5-9.5 (Pharmacia Biotech, Uppsala, Sweden)) and focused for 16 h at 880 V on 5.5% polyacrylamide isoelectric focusing (IEF) gels^20,39.
Samples from assembly assays with allele-specific antibodies were eluted by boiling (5 min) in SDS reducing buffer (50 mM TrisHCl pH 6.8, 2% SDS, 5% 2-mercaptoethanol, 10% glycerol, 2.5% bromophenol blue) and electrophorezed on 12% SDS-PAGE gels (1 h at 200 V). All gels were fixed in 10% acetic acid with 5% methanol and dried onto 3 MM paper (Whatman, Maidstone, UK). MHC heavy chain bands were quantified using the Imagequant Phosphorimager program (Molecular Dynamics, Sunnyvale, Calif., USA). The intensity of the band is directly related to the amount of peptide-bound class I MHC complex recovered during the assay. C50 value (μM) as the concentration of the peptide required for half maximal binding to MHC may thus be determined. The binding affinities of the analysed peptides are determined according to their efficiency of stabilising the HLA class I molecules. The binding affinity is represented as the peptide concentration required to reach half-maximal stabilistation of appropriate HLA-molecule.
Assembly assays for binding of the synthetic peptides to class I MHC molecules metabolically labeled with [^35S]-methionine were carried out as described^15,16. The assembly assay is based on stabilization of the class 1 molecule after loading of peptide to the peptide transporter deficient cell line T2. Subsequently correctly folded stable MHC heavy chains are immunoprecipitated using conformation-dependent antibodies. After IEF electrophoresis, gels were exposed to phosphorImager screens, and peptide binding was quantitated using the Imagequant PhosphorImager program (Molecular Dynamics, Sunnyvale, Calif.).

[2] = tested on: peripheral blood T cells or TIL from melanoma patients; assay: ELISPOT IFN-γ secretion assay, T-cell responses against HLA-A2 binding ML-IAP peptides; format: cell-based, human; conditions: for strength of spontaneous CTL response: TIL and PBL from melanoma patients, in words; for TIL samples in which a response against the peptide was detected: TIL from melanoma patients (n=22); for TIL samples in which a response against the peptide was detected / PBL samples in which a response against the peptide was detected: stimulated once in vitro with peptide, number of samples; for PBL samples in which a response against the peptide was detected: peripheral blood T cells from melanoma patients (n=7)
Description: Peripheral blood was obtained from melanoma patients before vaccination and subsequent to a series of vaccinations. In order to identify peptide-specific T-cell precursors, peripheral blood lymphocytes (PBL) were used directly in the ELISPOT (designated direct ELISPOT). However, to extend the sensitivity of the ELISPOT assay, PBL were stimulated once in vitro prior to analysis^17,18. At day 0, PBL or crushed lymph nodes were thawed and plated in 2 ml/well at a concentration of 2×10^6 cells in 24-well plates (Nunc, Denmark) in X-vivo medium (Bio Whittaker, Walkersville, Md.), 5% heat-inactivated human serum, and 2 mM of L-glutamine in the presence of 10 μM of peptide. Two days later 20 IU/ml recombinant interleukin-2 (IL-2) (Chiron, Ratingen, Germany) was added to the cultures. The cultured cells were tested for reactivity in the ELISPOT on day 8.
The ELISPOT assay used to quantify peptide epitope specific interferon-7 releasing effector cells was adapted from Lalvani et al.^37, and Scheibenbogen et al.^38. Briefly, nitrocellulose bottomed 96-well plates (MultiScreen MAIP N45, Millipore) were coated overnight at 4° C. with 7.5 μg/ml of anti-IFN-γ antibody (1-D1K, Mabtech, Sweden) in 75 μl sterile PBS. Subsequently, the wells were washed six times with PBS, and non-specific binding were blocked by X-vivo medium for 2 hours at 37° C. Freshly isolated PBL or cells, which had been stimulated once in vitro, were added in duplicates at different cell concentrations (from 10^6 to 10^5 cells per well for non-stimulated PBL, and from 3×10^5-3×10^4 cells per well for PBL which had been stimulated once in vitro), in 100 μl X-vivo medium. Peptides were then added to each well to a final concentration of 2 μM and incubated overnight at 37° C.
The following day, media was discarded and the wells were washed (six times) with PBS containing 0.05% Tween (PBS/Tw) before the addition of biotinylated secondary antibody (7-B6-1-Biotin, Mabtech) at 0.5 μg/ml in 75 μl PBS containing 1% BSA and 0.02% NaN3 (PBS/BSA). The plates were incubated at room temperature for 2 hours. The wells were washed (six times) with PBS/Tw. Then 75 μl of Avidin-enzyme conjugate (AP-Avidin, Calbiochem) diluted 1:2000 in PBS/BSA were added to each well and incubated for 1 hour. The enzyme substrate NBT/BCIP was prepared freshly according to the manufacturers' instructions (Gibco, code 18280-016) and 75 μl were added to each well and incubated for 5-10 min. The reaction was terminated by washing with tap-water upon the emergence of dark purple spots. The spots were then counted using the AlphaImager System (Alpha Innotech, San Leandro, Calif., USA) and the peptide specific CTL frequency could be calculated as the number of spot-forming cells.
To extend the sensitivity of the ELISPOT assay, PBL were stimulated once in vitro prior to analysis^17,18. At day 0, PBL or crushed lymph nodes were thawed and plated in 2 ml/well at a concentration of 2×10^6 cells in 24-well plates (Nunc, Denmark) in X-vivo medium (Bio Whittaker, Walkersville, Md.), 5% heat-inactivated human serum, and 2 mM of L-glutamine in the presence of 10 μM of peptide. Two days later 20 IU/ml recombinant interleukin-2 (IL-2) (Chiron, Ratingen, Germany) was added to the cultures. The cultured cells were tested for reactivity in the ELISPOT on day 12.
The ELISPOT assay used to quantify peptide epitope-specific interferon-γ-releasing effector cells was performed as described previously^19. Briefly, nitrocellulose bottomed 96-well plates (MultiScreen MAIP N45, Millipore, Hedehusene, Denmark) were coated with anti-IFN-7 antibody (1-D1K, Mabtech, Nacka, Sweden). The wells were washed, blocked by X-vivo medium, and cells were added in duplicates at different cell concentrations. Peptides were then added to each well and the plates were incubated overnight. The following day, media was discarded and the wells were washed prior to addition of biotinylated secondary antibody (7-B6-1-Biotin, Mabtech). […]

Row | Compound | EC50 [1] | also measured
1 | CC(C)C[C@H](NC(=O)[C@H](CCC(=O)O)NC(=O)[C@@H]1CCCN1C(=O)[C@@H]1CCCN1C(=O)[C@@H](NC(=O)[C@H](CCC(=O)O)NC(=O)[C@H](C)NC(=O)[C@@H](NC(=O)[C@H](CC(C)C)NC(=O)[C@@H]1CCCN1)[C@@H](C)O)C(C)C)C(=O)O [ML-IAP98] | > 100 µM | 
2 | ELPTPRREV [ML-IAP200] |  | C50 (μM) ([1]; listed as MLIAP200): did not bind
3 | SIVFVPCG [ML-IAP261] |  | C50 (μM) ([1]; listed as MLIAP261): did not bind
4 | CC(C)C[C@H](NC(=O)[C@@H]1CCCN1C(=O)[C@H](Cc1c[nH]c2ccccc12)NC(=O)[C@H](CC(=O)O)NC(=O)[C@H](Cc1ccc(O)cc1)NC(=O)[C@H](Cc1ccccc1)NC(=O)[C@H](CO)NC(=O)[C@H](C)NC(=O)[C@H](CC(C)C)NC(=O)[C@@H](N)CCCNC(=N)N)C(=O)O [ML-IAP90] | 0.2 µM | strength of spontaneous CTL response [2]: Weaker spontaneous responses; TIL samples in which a response against the peptide was detected [2]: seven; PBL samples in which a response against the peptide was detected [2]: two
5 | CC(C)C[C@H](NC(=O)CNC(=O)[C@H](CC(C)C)NC(=O)[C@@H](NC(=O)[C@@H]1CCCN1C(=O)[C@H](CO)NC(=O)CNC(=O)[C@H](CC(C)C)NC(=O)[C@@H](N)CO)C(C)C)C(=O)O [ML-IAP34] | 1 µM | 
6 | CC(C)C[C@H](NC(=O)[C@H](CCC(=O)O)NC(=O)[C@@H]1CCCN1C(=O)[C@@H]1CCCN1C(=O)[C@@H](NC(=O)[C@H](CCC(=O)O)NC(=O)[C@H](C)NC(=O)[C@@H](NC(=O)[C@@H](N)CC(C)C)[C@@H](C)O)C(C)C)C(=O)O [ML-IAP99] | 0.9 µM | 
7 | CC[C@H](C)[C@H](NC(=O)[C@@H](N)CCC(N)=O)C(=O)N[C@@H](CC(C)C)C(=O)NCC(=O)N[C@@H](CCC(N)=O)C(=O)N[C@@H](CC(C)C)C(=O)N[C@@H](CCCNC(=N)N)C(=O)N1CCC[C@H]1C(=O)N[C@@H](CC(C)C)C(=O)O [ML-IAP54] | 1 µM | 
8 | CSCC[C@H](NC(=O)CN)C(=O)NCC(=O)N[C@@H](CO)C(=O)N[C@@H](CCC(=O)O)C(=O)N[C@@H](CCC(=O)O)C(=O)N[C@@H](CC(C)C)C(=O)N[C@@H](CCCNC(=N)N)C(=O)N[C@@H](CC(C)C)C(=O)O [ML-IAP83] | 30 µM | 

Further lines, with some results ahead:

Row | EC50 [1] | Compound | also measured
9 | 20 µM | CC[C@H](C)[C@H](NC(=O)[C@@H]1CCCN1C(=O)[C@H](CS)NC(=O)[C@H](CC(C)C)NC(=O)[C@@H](N)CCC(N)=O)C(=O)N[C@@H](CS)C(=O)N[C@@H](CCCNC(=N)N)C(=O)N[C@@H](C)C(=O)N1CCC[C@H]1C(=O)N[C@H](C(=O)O)C(C)C [ML-IAP280] | 
10 | 10 µM | CC(C)C[C@H](NC(=O)[C@@H](N)CC(C)C)C(=O)N[C@@H](CCCNC(=N)N)C(=O)N[C@@H](CO)C(=O)N[C@@H](CCCCN)C(=O)NCC(=O)N[C@@H](CCCNC(=N)N)C(=O)N[C@@H](CC(=O)O)C(=O)N[C@@H](Cc1ccccc1)C(=O)N[C@H](C(=O)O)C(C)C [ML-IAP154] | 
11 | > 100 µM | CC(C)C[C@H](NC(=O)[C@@H](N)C(C)C)C(=O)N[C@@H](CCC(=O)O)C(=O)N1CCC[C@H]1C(=O)N1CCC[C@H]1C(=O)NCC(=O)N[C@@H](C)C(=O)N[C@@H](CCCNC(=N)N)C(=O)N[C@@H](CC(=O)O)C(=O)N[C@H](C(=O)O)C(C)C [ML-IAP230] | C50 (μM) [1]: not able to stabilize the HLA-A2 molecule; strength of spontaneous CTL response [2]: Weaker spontaneous responses; TIL samples in which a response against the peptide was detected [2]: six; PBL samples in which a response against the peptide was detected [2]: two
